For 14 compounds, activation and inhibition results are on record in patent US8148373B2, “Compounds” (AstraZeneca AB, priority 2008, dated 2012).

Assay [1] has as its target T1, Adrenergic β2 (H292 cells) (Homo sapiens, UniProt P07550).
T1 construct: endogenous in cells; host or cells: H292 cells
Nature of the assay: Adrenergic β2 Mediated cAMP Production, single concentration 1 μM. To be noted: NCI-H292, 1 μM compound, percentage of the maximum response generated by 1E-07M formoterol, read-out: β2 (% effect at 1 μM). In kind it is cell-based. On the procedure:
The following experimental procedure was used to measure the beta-2% effect at 1 μM for the compounds of Examples 116-263. Adrenergic β2 Mediated cAMP Production Cell Preparation
H292 cells are grown in 225 cm2 flasks incubator at 37° C., 5% CO2 in RPMI medium containing 10% (v/v) FBS (foetal bovine serum) and 2 mM L-glutamine.
Compounds were prepared by an initial first dilution into DMSO to give 1 mM stock concentration. This was followed by a 1 in 10 dilution of the stock concentration (10 μl stock compound+90 μl DMSO) to give 0.1 mM compound.
A compound addition plate was prepared by making a further 1 in 25 dilution in assay buffer (HBSS solution containing 10 mM HEPES pH7.4 and 5 mM glucose) containing 4% dimethylsulfoxide. The final compound concentration in assay is 1 μM.
Adherent H292 cells are removed from tissue culture flasks by treatment with Accutase™ cell detachment solution for 15 minutes. Flasks are incubated for 15 minutes in a humidified incubator at 37° C., 5% CO2. Detached cells are re-suspended in RPMI media (containing 10% (v/v) FBS and 2 mM L-glutamine) at 0.1×10^6 cells per mL. 10000 cells in 100 μL are added to each well of a tissue-culture-treated 96-well plate and the cells incubated overnight in a humidified incubator at 37° C., 5% CO2. The culture media is removed and cells are washed twice with 100 μL assay buffer and replaced with 50 μL assay buffer (HBSS solution containing 10 mM HEPES pH7.4 and 5 mM glucose). Cells are rested at room temperature for 20 minutes after which time 25 μL of rolipram (1.2 mM made up in assay buffer) is added. Cells are incubated with rolipram for 10 minutes after which time 25 μl test compounds are added and the cells are incubated for 60 minutes at room temperature. The final rolipram concentration in the assay is 300 μM and final vehicle concentration is 1% (v/v) dimethylsulphoxide. The reaction is stopped by removing supernatants, washing once with 100 μL assay buffer and replacing with 50 μL lysis buffer. The cell monolayer is frozen at −80° C. for 30 minutes (or overnight).
AlphaScreen™ cAMP Detection
The concentration of cAMP (cyclic adenosine monophosphate) in the cell lysate is determined using AlphaScreen™ methodology. The frozen cell plate is thawed for 20 minutes on a plate shaker then 10 μL of the cell lysate is transferred to a 96-well white plate. 40 μL of mixed AlphaScreen™ detection beads (containing equal volumes of donor beads (pre-incubated with biotinylated cAMP in the dark for 30 minutes) and acceptor beads is added to each well and the plate incubated at room temperature for 3 hours in the dark. The AlphaScreen™ signal is measured using an EnVision spectrophotometer (Perkin-Elmer Inc.) with the recommended manufacturer's settings. Concentration of cAMP produced per well were calculated with reference to the cAMP standard curve determined in the same experiment and expressed as a percentage of the maximum response generated by 1E-07M formoterol.

For assay [2], the target named is T2, human muscarinic acetylcholine M3 receptor (M3-ACh) (Homo sapiens, UniProt P20309).
T2 construct: expressed in transfected cells; host or cells: CHO-K1 (Chinese Hamster Ovary) cell membranes
T2 sequence (P20309 whole entry): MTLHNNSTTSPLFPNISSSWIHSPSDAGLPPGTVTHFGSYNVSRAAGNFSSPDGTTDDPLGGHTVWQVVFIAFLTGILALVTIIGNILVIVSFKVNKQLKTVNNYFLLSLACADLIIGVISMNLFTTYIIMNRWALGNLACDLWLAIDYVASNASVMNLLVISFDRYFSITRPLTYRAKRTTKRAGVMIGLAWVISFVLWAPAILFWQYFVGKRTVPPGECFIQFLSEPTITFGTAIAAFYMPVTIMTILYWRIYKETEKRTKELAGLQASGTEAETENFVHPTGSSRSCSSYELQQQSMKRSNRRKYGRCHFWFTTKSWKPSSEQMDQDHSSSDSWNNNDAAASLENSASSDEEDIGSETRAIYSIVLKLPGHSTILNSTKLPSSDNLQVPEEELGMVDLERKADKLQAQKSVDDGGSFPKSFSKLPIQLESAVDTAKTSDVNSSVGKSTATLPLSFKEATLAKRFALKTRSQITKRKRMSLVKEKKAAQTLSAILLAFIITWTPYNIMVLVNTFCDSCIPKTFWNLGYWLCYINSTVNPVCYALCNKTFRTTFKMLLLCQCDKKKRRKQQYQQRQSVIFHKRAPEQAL
Nature of the assay: Muscarinic 3 Receptor Binding Assay, % inhibition specific binding at 1 μM. To be noted: 1 μM compound, % inhibition specific [3H]-NMS binding. On the procedure: The following experimental procedure was used to determine the M3% inhibition at 1 μM of the compounds of Examples 116-263.
Muscarinic 3 Receptor Binding Assay
The activity (% inhibition specific binding) of compounds -on the M3 receptor is determined by competition binding of [^3H]N-methyl scopolamine (NMS) to CHO-K1 (Chinese Hamster Ovary) cell membranes expressing the human muscarinic acetylcholine M3 receptor (M3-ACh) in a scintillation proximity assay (SPA) format.
SPA beads are precoated with membranes and then incubated at 2 mg of beads per well with 1 μM compound of the invention, [^3H]NMS at 0.1 nM, quarter Kd (experimentally determined dissociation constant) and assay buffer (20 mM HEPES pH 7.4 containing 5 mM MgCl2). The assay is conducted in a final volume of 200 μL, in the presence of 1% (v/v) dimethyl sulphoxide (DMSO). Total binding of [^3H]NMS is determined in the absence of competing compound and non-specific binding of [^3H]NMS is determined in the presence of 1 μM atropine. The plates are incubated for 16 hours at room temperature and then read on Wallac Microbeta™ using a normalised ^3H protocol. The compound activity at 1 defined as % inhibition specific [^3H]-NMS binding, is determined.

For orientation: inhibition means the drop in the measured response relative to a control, in per cent.

T1 sequence (P07550 whole entry): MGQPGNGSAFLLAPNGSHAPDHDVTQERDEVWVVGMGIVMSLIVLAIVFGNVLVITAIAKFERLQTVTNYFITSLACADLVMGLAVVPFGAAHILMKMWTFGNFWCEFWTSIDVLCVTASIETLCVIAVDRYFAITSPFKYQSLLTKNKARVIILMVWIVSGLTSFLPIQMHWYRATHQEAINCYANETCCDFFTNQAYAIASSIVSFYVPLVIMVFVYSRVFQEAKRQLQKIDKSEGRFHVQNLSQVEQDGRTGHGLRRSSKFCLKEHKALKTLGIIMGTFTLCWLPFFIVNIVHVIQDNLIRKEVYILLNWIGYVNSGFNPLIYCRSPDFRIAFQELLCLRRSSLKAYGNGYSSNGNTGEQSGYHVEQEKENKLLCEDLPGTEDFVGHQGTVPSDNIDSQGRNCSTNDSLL

With `CC(C)c1cc(C(=O)N2CCOC3(CCN(CCOc4ccc(CNC[C@H](O)c5ccc(O)c6[nH]c(=O)sc56)cc4)CC3)C2)no1` [Example 255, (R)-4-hydroxy-7-(1-hydroxy-2-(4-(2-(4-(5-isopropylisoxazole-3-carbonyl)-1-oxa-4,9-diazaspiro[5.5]undecan-9-yl)ethoxy)benzylamino)ethyl) benzo[d]thiazol-2(3H)-one], the activation at 1 µM in assay [1] worked out at 66%. Besides, the inhibition at 1 µM in assay [2] stood at 32%.

As for `CC(C)(C(=O)N1CCOC2(CCN(Cc3cc(F)cc(CCNC[C@H](O)c4ccc(O)c5[nH]c(=O)sc45)c3)CC2)C1)c1ccccc1` [Example 176, (R)-7-(2-(3-fluoro-5-((4-(2-methyl-2-phenylpropanoyl)-1-oxa-4,9-diazaspiro[5.5]undecan-9-yl)methyl)phenethylamino)-1-hydroxyethyl)-4-hydroxybenzo[d]thiazol-2(3H)-one], the activation at 1 µM in assay [1] worked out at 87%. Further, the inhibition at 1 µM in assay [2] amounted to 16%.

`COc1ccc(OC)c(C(=O)N2CCOC3(CCN(Cc4cc(F)cc(CCNC[C@H](O)c5ccc(O)c6[nH]c(=O)sc56)c4)CC3)C2)c1` [Example 136, (R)-7-(2-(3-((4-(2,5-dimethoxybenzoyl)-1-oxa-4,9-diazaspiro[5.5]undecan-9-yl)methyl)-5-fluorophenethylamino)-1-hydroxyethyl)-4-hydroxybenzo[d]thiazol-2(3H)-one]: the activation at 1 µM in assay [1] came to 111%. Also, the inhibition at 1 µM in assay [2] turned out to be 26%.

Consider `O=C(CCc1nc2ccccc2[nH]1)N1CCOC2(CCN(Cc3cc(F)cc(CCNC[C@H](O)c4ccc(O)c5[nH]c(=O)sc45)c3)CC2)C1` [Example 116, (R)-7-(2-(3-((4-(3-(1H-benzo[d]imidazol-2-yl)propanoyl)-1-oxa-4,9-diazaspiro[5.5]undecan-9-yl)methyl)-5-fluorophenethylamino)-1-hydroxyethyl)-4-hydroxybenzo[d]thiazol-2(3H)-one], for which the activation at 1 µM in assay [1] amounted to 111%. Further, in assay [2], the inhibition at 1 µM was found to be 3%.

On to `CC(C)n1nnc2cc(C(=O)N3CCOC4(CCN(Cc5cc(F)cc(CCNC[C@H](O)c6ccc(O)c7[nH]c(=O)sc67)c5)CC4)C3)ccc21` [Example 142, (R)-7-(2-(3-fluoro-5-((4-(1-isopropyl-1H-benzo[d][1,2,3]triazole-5-carbonyl)-1-oxa-4,9-diazaspiro[5.5]undecan-9-yl)methyl)phenethylamino)-1-hydroxyethyl)-4-hydroxybenzo[d]thiazol-2(3H)-one], for which, in assay [1], the activation at 1 µM came out at 100%. The inhibition at 1 µM in assay [2] is -3%.

`O=C(c1ccsc1Cl)N1CCOC2(CCN(CCOc3ccc(CNC[C@H](O)c4ccc(O)c5[nH]c(=O)sc45)cc3)CC2)C1` [Example 253, (R)-7-(2-(4-(2-(4-(2-chlorothiophene-3-carbonyl)-1-oxa-4,9-diazaspiro[5.5]undecan-9-yl)ethoxy)benzylamino)-1-hydroxyethyl)-4-hydroxy-benzo[d]thiazol-2(3H)-one]: the activation at 1 µM in assay [1] stood at 73%. The inhibition at 1 µM in assay [2] stood at 35%.

On to `CC(C)c1cc(C(=O)N2CCOC3(CCN(CCCCCCCCCNC[C@H](O)c4ccc(O)c5[nH]c(=O)sc45)CC3)C2)no1` [Example 214, (R)-4-hydroxy-7-(1-hydroxy-2-(9-(4-(5-isopropylisoxazole-3-carbonyl)-1-oxa-4,9-diazaspiro[5.5]undecan-9-yl)nonylamino)ethyl)benzo[d]thiazol-2(3H)-one], for which the activation at 1 µM in assay [1] was 82%. Besides, the inhibition at 1 µM in assay [2] turned out to be 91%.

As for `Cc1ccsc1C(=O)N1CCOC2(CCN(Cc3cc(F)cc(CCNC[C@H](O)c4ccc(O)c5[nH]c(=O)sc45)c3)CC2)C1` [Example 125, (R)-7-(2-(3-fluoro-5-((4-(3-methylthiophene-2-carbonyl)-1-oxa-4,9-diazaspiro[5.5]undecan-9-yl)methyl)phenethylamino)-1-hydroxyethyl)-4-hydroxybenzo[d]thiazol-2(3H)-one], the activation at 1 µM in assay [1] was 97%. In addition, the inhibition at 1 µM in assay [2] was determined as 52%.

On to `Cc1ccc2[nH]c(C(=O)N3CCOC4(CCN(Cc5cc(F)cc(CCNC[C@H](O)c6ccc(O)c7[nH]c(=O)sc67)c5)CC4)C3)cc2c1` [Example 157, (R)-7-(2-(3-fluoro-5-((4-(5-methyl-1H-indole-2-carbonyl)-1-oxa-4,9-diazaspiro[5.5]undecan-9-yl)methyl)phenethylamino)-1-hydroxyethyl)-4-hydroxybenzo[d]thiazol-2(3H)-one], for which the activation at 1 µM in assay [1] came out at 102%. Further, in assay [2], the inhibition at 1 µM amounted to 13%.

Regarding `CC(C)(C(=O)N1CCOC2(CCN(CCCCCCCCCNC[C@H](O)c3ccc(O)c4[nH]c(=O)sc34)CC2)C1)c1ccccc1` [Example 189, (R)-4-hydroxy-7-(1-hydroxy-2-(9-(4-(2-methyl-2-phenylpropanoyl)-1-oxa-4,9-diazaspiro[5.5]undecan-9-yl)nonylamino)ethyl)benzo[d]thiazol-2(3H)-one], the activation at 1 µM in assay [1] was determined as 93%. For the same compound, in assay [2], the inhibition at 1 µM amounted to 96%.

On to `O=C(COc1ccccc1)N1CCOC2(CCN(CCOc3ccc(CNC[C@H](O)c4ccc(O)c5[nH]c(=O)sc45)cc3)CC2)C1` [Example 240, (R)-4-hydroxy-7-(1-hydroxy-2-(4-(2-(4-(2-phenoxyacetyl)-1-oxa-4,9-diazaspiro[5.5]undecan-9-yl)ethoxy)benzylamino)ethyl) benzo[d]thiazol-2(3H)-one], for which the activation at 1 µM in assay [1] was determined as 92%. Further, the inhibition at 1 µM in assay [2] is 34%.

As to `CC1=NNC(=O)C1CCC(=O)N1CCOC2(CCN(Cc3cc(F)cc(CCNC[C@H](O)c4ccc(O)c5[nH]c(=O)sc45)c3)CC2)C1` (stereo partly drawn) [Example 161, 7-((1R)-2-(3-fluoro-5-((4-(3-(3-methyl-5-oxo-4,5-dihydro-1H-pyrazol-4-yl)propanoyl)-1-oxa-4,9-diazaspiro[5.5]undecan-9-yl)methyl)phenethylamino)-1-hydroxyethyl)-4-hydroxybenzo[d]thiazol-2(3H)-one], the activation at 1 µM in assay [1] is 87%. In assay [2], the inhibition at 1 µM is 42%.

For the compound `O=C(Cc1cccs1)N1CCOC2(CCN(CCOc3ccc(CNC[C@H](O)c4ccc(O)c5[nH]c(=O)sc45)cc3)CC2)C1` [Example 226, (R)-4-hydroxy-7-(1-hydroxy-2-(4-(2-(4-(2-(thiophen-2-yl)acetyl)-1-oxa-4,9-diazaspiro[5.5]undecan-9-yl)ethoxy)benzylamino)ethyl) benzo[d]thiazol-2(3H)-one], the activation at 1 µM in assay [1] is 76%. Moreover, the inhibition at 1 µM in assay [2] was 53%.

In the case of `Cc1sccc1C(=O)N1CCOC2(CCN(CCOc3ccc(CNC[C@H](O)c4ccc(O)c5[nH]c(=O)sc45)cc3)CC2)C1` [Example 246, (R)-4-hydroxy-7-(1-hydroxy-2-(4-(2-(4-(2-methylthiophene-3-carbonyl)-1-oxa-4,9-diazaspiro[5.5]undecan-9-yl)ethoxy)benzylamino)ethyl) benzo[d]thiazol-2(3H)-one], in assay [1], the activation at 1 µM is 72%. Besides, the inhibition at 1 µM in assay [2] was found to be 38%.
